pIC50: −log10 of the molar value.
Key:
Test in all cases: microbe, parasite or virus in culture
M. marinum = tested on: T1, M. marinum; parameters: Resazurin microtiter plate assay (REMA), fluorescence; MIC90 growth inhibition in HdB medium with Tween-80, 30 °C; details: Mycobacterium marinum, 96 h; MIC90, HdB medium with Tween-80
T1 construct: M^USA (wild type)
Experimental: The resazurin microtiter plate assay (REMA) was used to determine minimal inhibitory concentrations (MIC) of the compound toward mycobacterial species ([Palomino et al, 2002]). Selected compounds or antibiotics were diluted in the bacterial growth medium as twofold serial dilutions in a 96-well plate. Bacteria were routinely grown until the mid-logarithmic phase, harvested by centrifugation (3,000g, 10 min), washed in PBS supplemented with 0.02% tyloxapol, resuspended in the growth medium, and added to the well plate containing compound dilutions, to achieve the final OD600 of 0.001 per well. […] When the color conversion of the dye was observed, the fluorescence was measured using a BioTek plate reader (Synergy H1), bottom reading mode, and excitation 560 nm/emission 590 nm. The MIC of compounds toward E. coli, Bacillus subtilis, K. pneumoniae, and A. baumannii was determined by tracking changes in the OD600. […] Plates were sealed and incubated at 37°C with 3 mm continuous linear shaking in a BioTek plate reader (Synergy H1), and the bacterial growth was tracked by measuring the OD600 every 15 min. […] Thus, we evaluated compounds from the benzothiazole library for their in vitro activity using the HdB medium with Tween-80 by REMA (Table S6).

[1] = tested on: T2, Mycobacterium smegmatis MC^2-155; parameters: resazurin microtiter plate assay (REMA), growth inhibition in 7H9 ADS glycerol tyloxapol; details: Mycolicibacterium smegmatis, 24 h, read-out: MIC50
T2 construct: MC2-155

[2] = tested on: T3, Mycobacterium abscessus RIVM; parameters: resazurin microtiter plate assay (REMA), growth inhibition in 7H9 ADS glycerol tyloxapol; details: Mycobacteroides abscessus, 48 h, read-out: MIC50
T3 construct: RIVM

[3] = tested on: T4, Mycobacterium abscessus 144C; parameters: resazurin microtiter plate assay (REMA), growth inhibition in 7H9 ADS glycerol tyloxapol; details: Mycobacteroides abscessus, 144C, 48 h, read-out: MIC50
T4 construct: 144C

Escherichia coli K12 = tested on: T5, Escherichia coli K12; parameters: species or system E. coli, B. subtilis, K. pneumoniae, A. baumannii; bacterial growth inhibition in LB, twofold dilutions, OD600 tracking; details: Escherichia coli, K12, read-out: MIC50
T5 construct: K12

[4] = tested on: T6, Acinetobacter baumannii 1757; parameters: species or system E. coli, B. subtilis, K. pneumoniae, A. baumannii; bacterial growth inhibition in LB, twofold dilutions, OD600 tracking; details: Acinetobacter baumannii, 1757, read-out: MIC50
T6 construct: 1757

[5] = tested on: T7, Klebsiella pneumoniae LMG20218; parameters: species or system E. coli, B. subtilis, K. pneumoniae, A. baumannii; bacterial growth inhibition in LB, twofold dilutions, OD600 tracking; details: Klebsiella pneumoniae, LMG20218, read-out: MIC50
T7 construct: LMG20218

[6] = tested on: T8, Acinetobacter baumannii LMG01041; parameters: species or system E. coli, B. subtilis, K. pneumoniae, A. baumannii; bacterial growth inhibition in LB, twofold dilutions, OD600 tracking; details: Acinetobacter baumannii, LMG01041, read-out: MIC50
T8 construct: LMG01041

Bacillus subtilis 168 = tested on: T9, Bacillus subtilis 168; parameters: species or system E. coli, B. subtilis, K. pneumoniae, A. baumannii; bacterial growth inhibition in LB, twofold dilutions, OD600 tracking; details: Bacillus subtilis, 168, read-out: MIC50
T9 construct: 168

For `CCOc1ccc2nc(N(Cc3ccccc3OC)C(C)=O)sc2c1` [BT-37], the MIC90 (M. marinum) was 0.3 µM, the pIC50 [1] was < 4.40 and the pIC50 [2] was < 4.40. The pIC50 [3] was < 4.40, the pIC50 (Escherichia coli K12) was < 4.40 and the pIC50 [4] was < 4.40. For the same compound, the pIC50 [5] was < 4.40, the pIC50 [6] was < 4.40 and the pIC50 (Bacillus subtilis 168) was < 4.40.
In the case of `CCOc1ccc2nc(N(Cc3ccccc3)C(C)=O)sc2c1` [BT-08, N-Benzyl-N-(6-ethoxybenzo[d]thiazol-2-yl)acetamide], the pIC50 [2] was < 4.40, the pIC50 [3] was < 4.40 and the pIC50 (Escherichia coli K12) was < 4.40. The pIC50 [4] was < 4.40, the pIC50 [5] was < 4.40 and the pIC50 [6] was < 4.40. For the same compound, the pIC50 (Bacillus subtilis 168) was < 4.40.
